In patent US20230265167A1, “COMPOSITIONS HAVING NEUROREGENERATIVE APPLICATIONS” (GRIFOLS WORLDWIDE OPERATIONS LIMITED, priority 2020, published 2023):

Experiments:
SH-SY5Y cells [1] = test: Cell number / proliferation of SH-SY5Y cells by imaging; assay type: cell-based, human
Procedure: Undifferentiated SH-SY5Y cells were seeded into 96 well clear bottom plates in media containing 0.1% FBS. A serum-free base media was utilized as recommended by the supplier for SH-SY5Y cells (Sigma, Cat #94030304-1VL). Twenty-four hours after seeding cells, a 3× stock solution of ApoTf, final concentrations indicated on the x-axis, in serum free base media was added to the cells. ApoTf was obtained and purified from pooled human plasma and dosed at a final concentration of 0.2 mg/mL.
Cells were allowed to differentiate for 6 days. Neurite growth was assessed by imaging and image analysis. At the time of analysis, a 10× solution of Tubulin Tracker (Molecular Probes, T34075) and Hoechst 33342 (Molecular Probes #H3570) nuclear stain was prepared.
Briefly, Tubulin Tracker dissolved in DMSO was diluted 1:1 with Pluronic F-127 and further diluted into HBSS to generate a 10× solution. Hoechst 33342 was added to the HBSS-Tubulin Tracker solution at 10 μg/mL to generate a 10× nuclear stain. […]
After obtaining images, the MetaExpress Neurite Outgrowth analysis module (Molecular Devices) was used to identify cells, cell bodies, and quantify neurites. […] The Outgrowth Fold Change was determined by setting the untreated control cells to a value of 1 with all other treatments shown relative to untreated control.

[2] = system: C57BL/6J mice with transient MCAo; test: Neurogenesis in dentate gyrus of mice after transient MCAo (BrdU/DCX, BrdU/NeuN immunohistochemistry); assay type: in vivo, mouse; conditions: 350 mg/kg i.p. daily 7 days, vs saline; for number of new neuroblasts (BrdU+/DCX+ cells): FIG. 9A, two-week period; for number of newly formed mature neurons (BrdU+/NeuN+ cells): FIG. 9B, after 4 weeks
Procedure: (§1) C57BL/6J mice (ca. 20 g) were anaesthetized under isoflurane and, after dissection, a 6.0 silicon-coated monofilament suture was inserted into the external carotid artery to occlude the middle cerebral artery (MCAo). The occlusion was carried out for 60 minutes under temperature control.
(§2) Only animals with a ‘neuroscore’ of 4 or greater were considered for further testing (n=8-10 animals/group). At six hours post-occlusion, mice were injected daily with 350 mg/kg of Apo-transferrin (i.p.) or an equal volume of saline for a total of seven days, as well as with 50 mg/kg Bromodeoxyuridine (BrdU; Sigma-Aldrich Chemical, St. Louis, Mo.), both articles delivered by intraperitoneal administration. Weight changes were monitored daily.
At the times indicated in Example 9, brains were prepared for analysis by transcardial perfusion with ice cold heparinized saline (heparin at 2.5 IU/ml) in order to remove blood from the brains. Fresh brains were removed leaving the right cerebellum attached to whole left-brain hemisphere to help orientate the brain block in sectioning. The whole left hemisphere block was placed in 4% paraformaldehyde in 0.1 M phosphate buffer (PB) for 24 hours at +4° C., then cryoprotected in 30% sucrose in 0.1 M PB for 2-3 days on a shaker at +4° C. The brain was then blotted to remove excess liquid, placed on top of a vial cork and frozen on top of liquid nitrogen; the block was then stored at −80° C. until cryostat sections are obtained. Neurogenesis was evaluated by immunohistochemistry using antibodies against BrdU and Doublecortin (DCX) to quantify new neuroblasts or against BrdU and NeuN to quantify new neurons in the dentate gyrus of the brain.

SH-SY5Y cells [3] = test: β-III-tubulin staining intensity in SH-SY5Y cells; assay type: cell-based, human; conditions: FIG. 1D
Procedure: In this experiment, the SH-SY5Y cells were differentiated as described supra. At the time of analysis, cells were fixed with paraformaldehyde, stained for β-III-tubulin (R&D Systems, MAB1195), and imaged on a Molecular Devices Nano imaging instrument. Image analysis was performed by assessing the fluorescent intensity of cells stained with β-III-tubulin. Background from secondary antibody alone was subtracted from all values. Values are shown with standard deviations as “β-III-Tubulin Staining Intensity” for the indicated conditions.

[4] = system: C57BL/6J mice with transient MCAo; test: Neuroscore recovery after transient MCAo; assay type: in vivo, mouse; conditions: FIG. 10A, 3-14 days after MCAo, vs saline
Procedure: as §1, §2
Mice were prepared as indicated in Example 9 above and were subjected to assessments at 3 days and 1, 2, 3, 4 weeks post-MCAo, as indicated (n=8-10 animals/group). Motor coordination (i.e. equilibrium behavior and locomotor ability as a function of cortico-striatal function) was assessed using a rotarod test. Learning and memory capacity were measured using the NORT (novel object recognition test; for example, Anglada-Huguet et al., 2014, Molecular Neurobiology, vol. 49, pages 784-795; Denninger et al., 2018, J. Vis. Exp., vol. 141, e58593). […]

[5] = system: C57BL/6J mice with transient MCAo; test: Novel object recognition test (NORT) after transient MCAo; assay type: in vivo, mouse; conditions: FIG. 10C, at least two weeks, vs saline
Procedure: as §1, §2
Mice were prepared as indicated in Example 9 above and were subjected to assessments at 3 days and 1, 2, 3, 4 weeks post-MCAo, as indicated (n=8-10 animals/group). Motor coordination (i.e. equilibrium behavior and locomotor ability as a function of cortico-striatal function) was assessed using a rotarod test. Learning and memory capacity were measured using the NORT (novel object recognition test; for example, Anglada-Huguet et al., 2014, Molecular Neurobiology, vol. 49, pages 784-795; Denninger et al., 2018, J. Vis. Exp., vol. 141, e58593).
The time that it takes an animal to fall (Latency to fall) from the rotarod is shown vs time after MCAo. The motor skills of the mice reflect those of the neuroscore in FIG. 10A, with an increased rate of improvement in motor/balance skills, as measured by the amount of time animals stayed on the rotarod apparatus. […] The Discrimination (%) is a description of an animal's memory, as measured by the percentage of time in which an animal investigates newly presented objects compared to the time they investigate previously presented objects. Animals with better cognition and memory spend more time with the novel object due to memories of the object previously presented to the animal; this is shown as increased % Discrimination.

**Q.** What does the source list for “apo-transferrin: iron-free form of transferrin protein, obtained and purified from pooled human plasma”?
**A.** cell numbers (cell proliferation) (SH-SY5Y cells [1]; FIG. 1B, up to 0.8 mg/mL): induces a concentration-dependent increase in cell numbers; cell proliferation, visual comparison to untreated control (SH-SY5Y cells [1]; FIG. 1C, 0.1 mg/mL): profound effect on promoting cell proliferation; number of new neuroblasts (BrdU+/DCX+ cells) [2]: increases the amount of neurogenesis; number of new neuroblasts (BrdU+/DCX+ cells) ([2]; listed as ApoTf): increases the number of neuroblasts; number of newly formed mature neurons (BrdU+/NeuN+ cells) [2]: increases the amount of neurogenesis; number of newly formed mature neurons (BrdU+/NeuN+ cells) ([2]; listed as ApoTf): number of newly formed mature neurons are higher; β-III-Tubulin Staining Intensity (SH-SY5Y cells [3]): caused an increase in β-III-tubulin protein; rate of recovery (percentage of animals with neuroscore 0) [4]: quicker recovery; rate of recovery (percentage of animals with neuroscore 0) ([4]; listed as ApoTf): significantly improves the rate at which the animals recover; learning recognition / Discrimination (%) in NORT [5]: higher cognition; learning recognition / Discrimination (%) in NORT ([5]; listed as ApoTf): increases learning recognition functions; learning recognition / Discrimination (%) in NORT ([5]; listed as apoTf): higher ‘percent Discrimination’
